pIC50: −log10 of the molar value.
Molecular target: Genome polyprotein (Hepatitis C virus genotype 1b (isolate BK) (HCV), UniProt P26663)
Experiment: Inhibition Assay: To measure inhibition of the enzymatic activity of the HCV NS5B RNA-dependent RNA polymerase by the nucleoside triphosphate compounds of the present invention, a radiolabeled nucleotide incorporation assay was used. This assay is a modified version of the assay described in International Publication No. WO2002/057287. Briefly, 50 uL reactions containing 20 mM HEPES (pH 7.3); 7.5 mM DTT; 20 units/ml RNasIN; 1 uM each of ATP, GTP, UTP and CTP; 20 uCi/mL [33P]-CTP; 10 mM MgCl; 60 mM NaCl; 100 ug/ml BSA; 0.021 uM DCoH heteropolymer RNA template; and 5 nM NS5B (1b-BKΔ55) enzyme were incubated at room temperature for 1 hour. The assay was then terminated by the addition of 500 mM EDTA (50 uL). The reaction mixture was transferred to a Millipore DE81 filter plate and the incorporation of labeled CTP is determined using Packard TopCount. Compound IC50 values can then be calculated from experiments with 10 serial 3-fold dilutions of the inhibitor in duplicate.

Sequence of Genome polyprotein (P26663 2420-3010 limits assumed): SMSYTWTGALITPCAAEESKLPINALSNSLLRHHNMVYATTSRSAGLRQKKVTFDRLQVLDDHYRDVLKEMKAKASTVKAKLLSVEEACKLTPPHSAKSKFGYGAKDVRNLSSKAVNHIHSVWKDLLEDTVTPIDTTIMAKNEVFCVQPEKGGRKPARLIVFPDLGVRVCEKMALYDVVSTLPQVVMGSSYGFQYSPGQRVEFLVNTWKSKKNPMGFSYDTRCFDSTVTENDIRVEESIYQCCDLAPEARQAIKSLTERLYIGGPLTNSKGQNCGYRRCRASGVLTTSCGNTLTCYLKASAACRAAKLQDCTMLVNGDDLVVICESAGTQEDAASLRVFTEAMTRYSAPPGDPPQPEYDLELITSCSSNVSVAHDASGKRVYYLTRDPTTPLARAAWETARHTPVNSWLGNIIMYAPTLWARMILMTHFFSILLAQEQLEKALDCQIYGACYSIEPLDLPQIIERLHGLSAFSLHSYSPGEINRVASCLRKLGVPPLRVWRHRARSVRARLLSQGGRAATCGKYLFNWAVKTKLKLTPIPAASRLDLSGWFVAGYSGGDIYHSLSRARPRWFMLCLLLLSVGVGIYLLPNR

Row | SMILES | pIC50
1 | C[C@@]1(C#N)[C@H](O)[C@@H](COP(=O)(O)OP(=O)(O)OP(=O)(O)O)O[C@H]1c1ccc2c(N)ncnn12 | 8.52
2 | CO[C@]1(c2ccc3c(N)ncnn23)O[C@@H](COP(=O)(O)OP(=O)(O)OP(=O)(O)O)[C@H](O)[C@]1(C)C#N | 7.06
3 | CC1(C#N)[C@H](O)[C@@H](COP(=O)(O)OP(=O)(O)OP(=O)(O)O)O[C@@]1(C#N)c1cnc2c(N)ncnn12 (some centres not stated) | 4.06
4 | CO[C@]1(c2cnc3c(N)ncnn23)O[C@@H](COP(=O)(O)OP(=O)(O)OP(=O)(O)O)[C@H](O)C1(C)C#N (some centres not stated) | 5.42
5 | C[C@@]1(C#N)[C@@H](c2cnc3c(N)ncnn23)O[C@@H](COP(=O)(O)OP(=O)(O)OP(=O)(O)O)[C@@H]1O | 7.30
6 | C[C@]1(C#N)[C@H](O)[C@H](COP(=O)(O)OP(=O)(O)OP(=O)(O)O)O[C@]1(C#N)c1ccc2c(N)ncnn12 | 5.92
7 | CC1(C#N)[C@@H](O)[C@H](COP(=O)(O)OP(=O)(O)OP(=O)(O)O)O[C@]1(C#N)c1cnc2c(=O)[nH]cnn12 (some centres not stated) | < 3.70
